# Measurements reported in patent US20190196073A1, “COMPOSITION, FILM, NEAR INFRARED CUT FILTER, PATTERN FORMING METHOD, LAMINATE, SOLID IMAGE PICKUP ELEMENT, IMAGE DISPLAY DEVICE, CAMERA MODULE, AND INFRARED SENSOR” (FUJIFILM Corporation, priority 2016, published 2019).
# What was measured:
# [1] = Measurement of absorption maximum of near infrared absorbing compound in solution; assay type: physicochemical
# Text: In addition, in the present invention, a case where the near infrared absorbing compound “has an absorption maximum in a wavelength range of 650 to 1000 nm” represents the near infrared absorbing compound has a maximum absorbance in a wavelength range of 650 to 1000 nm in an absorption spectrum of the near infrared absorbing compound in a solution. A measurement solvent used for measuring an absorption spectrum of the near infrared absorbing compound in the solution is not particularly limited as long as the near infrared absorbing compound is soluble therein. From the viewpoint of solubility, for example, chloroform, dimethylformamide, tetrahydrofuran, or methylene chloride can be used. For example, in the case of a compound which is soluble in chloroform, chloroform is used as the measurement solvent. In the case of a compound which is not soluble in chloroform, methylene chloride is used. In addition, in the case of a compound which is not soluble in chloroform and methylene chloride, dimethylformamide is used. In addition, in the case of a compound which is not soluble in chloroform, methylene chloride, and dimethylformamide, tetrahydrofuran is used.
# <Measurement of Absorption Maximum of Near Infrared Absorbing Compound>
# A near infrared absorbing compound shown in the following tables was dissolved in a measurement solvent shown in the following tables to prepare a sample solution. Using a spectrophotometer U-4100 (manufactured by Hitachi High-Technologies Corporation), an absorbance of the sample solution in a wavelength range of 300 to 1300 nm was measured to obtain an absorption maximum.
# [2] = Measurement of solubility of near infrared absorbing compound in propylene glycol methyl ether acetate; conditions: for solubility at 30 min: propylene glycol methyl ether acetate, 25 °C, organic solvent or mixture, thermodynamic from solid
# Method: (§1) Under the atmospheric pressure, about 100 mg (a precisely weighed value is represented by X mg) of the near infrared absorbing compound is added to 1 L of propylene glycol methyl ether acetate at 25° C., and the components are stirred for 30 minutes. Next, the solution is left to stand for 5 minutes and then is filtered, and the filtrate is dried under reduced pressure at 80° C. for 2 hours is precisely weighed (a precisely weighed value is represented by Y mg). The solubility of the near infrared absorbing compound dissolved in propylene glycol methyl ether acetate is calculated from the following expression.
# [3] = physchem; conditions: 25 °C, organic solvent or mixture, thermodynamic from solid
# Method: as §1
Compound,Absorption Maximum ([1]; measurement solvent Chloroform) [nm],solubility at 30 min [3] [µg/mL],also measured
"4,5-octakis(phenylthio)-3,6-{tetrakis(2,6-dimethylphenoxy)-tetrakis(n-hexyamino)}copper phthalocyanine [AR-1, reference compound]",780,–,–
"CCCCCCCC(CCCCCCC)N1C(=O)c2ccc3c4ccc5c6ccc7c8ccc9c%10c(ccc(c%11ccc(c%12ccc(c%13ccc(c2c3%13)C1=O)c4c5%12)c6c7%11)c%108)C(=O)N(C(CCCCCCC)CCCCCCC)C9=O [AR-4, reference compound]",765,–,solubility at 30 min [2]: 32.1 µg/mL
O=C1c2ccc3c4ccc5c6ccc7c8ccc9c%10c(ccc(c%11ccc(c%12ccc(c%13ccc(c2c3%13)C(=O)N1c1ccccc1)c4c5%12)c6c7%11)c%108)C(=O)N(c1ccccc1)C9=O [Example A-2],–,–,Absorption Maximum ([1]; measurement solvent Methylene Chloride): 765 nm; solubility at 30 min [2]: 0.64 µg/mL
c1ccc2cc3c(cc2c1)C1=NC3=Nc2c3cc4ccccc4cc3c3[n]2[Cu][n]2c(c4cc5ccccc5cc4c2=NC2=NC(=N3)c3cc4ccccc4cc32)=N1 [Example A-3],775,–,"Solubility ([2]; in propylene glycol methyl ether acetate at 25° C., about 100 mg added to 1 L): 0.33 µg/mL"
NC(=O)c1cccc(N2C(=O)NC(=O)/C(=C/C=C(/C=C/c3c([O-])[nH]c(=O)n(-c4cccc(C(N)=O)c4)c3=O)c3ccccc3)C2=O)c1.[K+] [Example A-4],–,–,Absorption Maximum ([1]; measurement solvent Dimethylformamide): 740 nm; solubility at 30 min [2]: 5.82 µg/mL
CCOc1ccc(OCC)c2c1C1=NC/2=N\c2c3c(OCC)ccc(OCC)c3c3[n]2[Zn][n]2/c(c4c(OCC)ccc(OCC)c4/c2=N/C2=NC(=N\3)/c3c(OCC)ccc(OCC)c32)=N\1 [Example A-6],744,–,solubility at 30 min [2]: 15.5 µg/mL
O=C1C2=C(c3cnc4ccccc4n3)N(B(c3ccccc3)c3ccccc3)C(=O)C2=C(c2cnc3ccccc3n2)N1B(c1ccccc1)c1ccccc1 [Example A-21],710,5.47,–
CC1N(C)c2cc(NC(=O)CSC(=N)N)c(C3=C([O-])/C(=c4\cc5c(cc4NC(=O)CSC(=N)N)=[N+](C)C(C)C5(C)C)C3=O)cc2C1(C)C (stereo not drawn) [Example A-23],708,5.62,–
CC1N(C)c2cc(NC(=O)c3ccc4c(c3)C(=O)N(C)C4=O)c(C3=C([O-])/C(=c4\cc5c(cc4NC(=O)c4ccc6c(c4)C(=O)N(C)C6=O)=[N+](C)C(C)C5(C)C)C3=O)cc2C1(C)C (stereo not drawn) [Example A-24],711,7.88,–
CCNC(=O)NC1=CC(=[N+](CC)CC)C=C/C1=C1/C(=O)C(c2ccc(N(CC)CC)cc2NC(=O)NCC)=C1[O-] [Example A-25],680,2.51,–
CC1C(/C=C2/C(=O)C(/C=C3/C(C)c4cc(C(N)=O)ccc4N3C)=C2[O-])=[N+](C)c2ccc(C(N)=O)cc21 (stereo not drawn) [Example A-26],665,11.2,–
CC(=O)NC1CCC2(CC1)N=c1/c(=C3/C(=O)C(c4ccc5cccc6c5c4NC4(CCC(NC(C)=O)CC4)N6)=C3O)ccc3cccc(c13)N2 (stereo not drawn) [Example A-27],810,6.74,–
C/C(C1=C(O)/C(=C(/C)C2=Nc3ccccc3C2CCN)C1=O)=C1/Nc2ccccc2C1CCN (stereo not drawn) [Example A-28],737,1.92,–
NC(=O)C1N=c2/c(=C3/C(=O)C(c4ccc5cccc6c5c4NC(C(N)=O)N6)=C3O)ccc3cccc(c23)N1 (stereo not drawn) [Example A-29],810,0.57,–
O=C1C(c2ccc(N(c3ccccc3)c3ccccc3)cc2NS(=O)(=O)C(F)(F)F)=C(O)/C1=C1/C=CC(N(c2ccccc2)c2ccccc2)=C/C1=N\S(=O)(=O)C(F)(F)F [Example A-30],737,3.58,–
O=C1C(c2ccc3cccc4c3c2NB(c2ccc(O)cc2)N4)=C(O)/C1=c1/ccc2cccc3c2c1=NB(c1ccc(O)cc1)N3 [Example A-31],823,7.69,–
CCN1/C(=C/C2=C([O-])C(=C/c3sc4c5ccccc5ccc4[n+]3CC)/C2=O)Sc2c1ccc1ccccc21 [Example A-32],705,0.42,–
CCOC(=O)NC1=CC(=[N+](CC)CC)C=C/C1=C1/C(=O)C(c2ccc(N(CC)CC)cc2NC(=O)OCC)=C1[O-] [Example A-34],680,7.72,–
CC(=O)NC1=CC(=[N+]2CCCC2)C(C)=C/C1=C1/C(=O)C(c2cc(C)c(N3CCCC3)cc2NC(C)=O)=C1[O-] [Example A-35],700,5.11,–
CCN(CC)c1cc2[nH]c(=O)c3ccc(cc3)c(=O)[nH]c3cc(=[N+](CC)CC)c(C)cc3c3c([O-])c(c3=O)c2cc1C [Example A-36],715,4.29,–
CC1(C)c2ccccc2N(c2cc(O)c(C3=C([O-])C(=C4C(O)=CC(=[N+]5c6ccccc6C(C)(C)c6ccccc65)C=C4O)C3=O)c(O)c2)c2ccccc21 [Example A-37],675,0.65,–
O=C1C(=C2C(O)=CC(=[N+]3c4ccccc4-c4ccccc43)C=C2O)C([O-])=C1c1c(O)cc(-n2c3ccccc3c3ccccc32)cc1O [Example A-38],750,0.88,–
O=C1C(c2ccc(N3CCCCC3)cc2NC(=O)C(F)(F)F)=C([O-])/C1=C1\C=CC(=[N+]2CCCCC2)C=C1NC(=O)C(F)(F)F [Example A-39],698,2.68,–
CC1=CC(=[N+](c2ccccc2)c2ccccc2)S/C1=C1/C(=O)C(c2sc(N(c3ccccc3)c3ccccc3)cc2C)=C1[O-] [Example A-40],706,11.2,–
CNC(=O)Nc1cc(N2CCCC2)c(C)cc1C1=C([O-])/C(=c2\cc3c4c(c2NC(=O)NC)CCC[N+]=4CCC3)C1=O [Example A-41],710,0.94,–
CCN1/C(=C/C2=C([O-])C(=C\c3sc4ccccc4[n+]3CC)/C(=O)C2=O)Sc2ccccc21 [Example A-43],848,2.22,–
